Results published in article PMC11063903, “Engineering a human P2X2 receptor with altered ligand selectivity in yeast” (The Journal of Biological Chemistry, 2024).

Tests used:
Assay type in all cases: cell-based
[1] = target: T1, P2X2 A304W (Homo sapiens, UniProt Q9UBL9, A304W); test: Fast GCaMP-mScarletI assay in yeast, P2X2 A304W; details: for Bottom, best fit value / Hillslope, best fit value / Top, best fit value: four-parameter logistic fit of ΔF/ΔT; for Bottom, best fit value / Hillslope, best fit value / Top, best fit value / EC50: n = 3; for EC50: four-parameter logistic fit, unit inferred, unit M, read-out: EC50, best fit value
T1 construct: expressed in transfected cells; host or cells: S. cerevisiae BY4741 background
T1 sequence (Q9UBL9 1-471 A304W): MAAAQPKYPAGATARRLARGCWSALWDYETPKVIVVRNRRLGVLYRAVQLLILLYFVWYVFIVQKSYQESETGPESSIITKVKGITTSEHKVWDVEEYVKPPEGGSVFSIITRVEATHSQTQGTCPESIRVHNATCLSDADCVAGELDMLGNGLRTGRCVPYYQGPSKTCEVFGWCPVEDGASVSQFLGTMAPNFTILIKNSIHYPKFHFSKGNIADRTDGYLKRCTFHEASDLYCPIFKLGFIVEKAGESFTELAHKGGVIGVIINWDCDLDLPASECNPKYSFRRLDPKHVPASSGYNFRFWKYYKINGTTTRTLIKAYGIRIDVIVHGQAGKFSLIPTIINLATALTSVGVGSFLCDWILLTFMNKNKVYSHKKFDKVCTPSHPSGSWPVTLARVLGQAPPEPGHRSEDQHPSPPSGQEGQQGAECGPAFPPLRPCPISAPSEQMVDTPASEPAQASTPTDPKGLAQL
Protocol: Figure 4 Unnatural-ligand gating in LBD libraries.A, WT P2X2 was tested with 1 mM ATP, 500 μM AMP-PNP, and compared to ATP with the broken receptor (K81C K83C) control with 1 mM ATP in the fast GCaMP-mScarletI assay (n = 3). […] B, heat map summarizing AMP-PNP signaling (ΔF/ΔT, fast GCaMP-mScarletI assay) in the site-saturation libraries (n = 2–3). All values are normalized to WT P2X2 with saturating amounts of AMP-PNP (500 μM) and therefore represent low signal (ΔF/ΔT) compared to the ATP ligand. C, F301W, F303Y, and A304W were combinatorially combined and tested against the WT, K81C K83C broken P2X2, and the single mutant clones with both ATP (1 mM, black) and AMP-PNP (500 μM, pink). […] Values here represent signal onset and are not normalized to a positive control (n = 2–5). D–K, dose response of each P2X variant with both ATP (black) and AMP-PNP (pink) in the fast GCaMP-mScarletI assay (n = 3). Statistics were performed via one-way ANOVA with Dunnett’s multiple comparisons with to the “broken” K81C K83C negative control. ∗ represents a p value ≤0.05, ∗∗ is p ≤ 0.01, and ∗∗∗ is p ≤ 0.001.
Given that the yeast-based screen seemed to recapitulate important structural and functional features of human ion channel function, we hypothesized that it might be possible to engineer new P2X2 functionalities in yeast, including new ligand specificity. […] We screened our 133-member library in the presence of 500 μM AMP-PNP (Fig. S7). While the AMP-PNP signal was uniformly low, three substitutions (F301W, F303Y, and A304W) increased signaling 2.5 to 2.8 times relative to the negative control receptor (Figs. 4B, and S7, D, F, and G). To gain a more complete view of the properties of these mutants, dose–response curves were generated with ATP and AMP-PNP (Fig. 4, D–G, and Table S2).
GCaMP assays were performed as follows. P2X2 GCaMP strains were designed with a bi-cistronic reporter, in which the GCaMP protein was followed by a 2A peptide and a mScarletI reporter ([53]). The co-translated mScarletI was designed to act as a control for plasmid loss, GCaMP breakage via nonsense mutation, and contamination. […] P2X2-GCaMP strains were cultured and induced as previously described. Samples were induced for 24 h to allow for the accumulation of the mature GCaMP protein. Cells were washed three times in 0.1 M MES/Tris buffer and resuspended with MES/Tris with supplemental calcium. Cells were loaded onto a black, clear bottom microplate and imaged on a FlexStation3 plate reader. Samples were imaged in “flex” mode. Samples were imaged for 48 s at an interval of 1.6 s. Fluorescence was measured with an excitation at 485 nm, and emission 525 nm. At the 21 s mark, 100 μl ligand solution was transferred to the cells. For strains with mScarlet, fluorescence was read with excitation 570 nm/emission 610 nm. Slopes were calculated from the last 6 points of measurement and were normalized to the positive control samples. Any replicate in which the mScarlet value was measured to be over 2 standard deviations less than the mean for that set was discarded from further analysis.
For multiple comparisons in the site-saturation screening data, One-way ANOVA with Dunnett’s multiple comparisons test was performed where every sample was compared to the “broken” negative control. Significance was plotted where ∗ represents a p value ≤0.05, ∗∗ is p ≤0.01, and ∗∗∗ is p ≤0.001. Dose–response curves were fit with nonlinear regression software using a four-parameter logistic curve. All statistics were calculated and plotted in Graphpad Prism software.

[2] = target: T1, P2X2 A304W; test: Fast GCaMP-mScarletI assay in yeast, P2X2 A304W; details: site-saturation screen, 500 μM ATP, ± sd
[3] = target: T2, P2X2 Y299H (Homo sapiens, UniProt Q9UBL9, Y299H); test: Site-saturation screen of ligand-binding domain with ATP, Y299H; details: 500 μM ATP, ± sd
T2 construct: expressed in transfected cells; host or cells: S. cerevisiae BY4741 background
Source text: The yeast P2X2 screening platform poses an opportunity to probe the structure-function of the ligand-binding domain in detail. The conserved P2X “NFR” motif at residues 300 to 302 is directly involved in bonding to the ATP triphosphate moiety ([41]), so we mutagenized residues at or near this motif (298–304), ultimately covering 133 variants (7 sites, 19 residues each). […] We compared our results to phylogenetic data based on a multiple sequence alignment (MSA) from a curated set of 419 related P2X homologs (Figs. 3B, and S5; Table S1).
Figure 3 Structure-function analysis of the ligand binding domain.A, heat map summarizing the screening data of ATP with seven site-saturation libraries surrounding the NFR-motif. B, sequence-logo plot of the mutagenized residues and percent identity scores as determined from MSA. C, homology model of P2X2 colored by sequence conservation as calculated from a multiple sequence alignment of 419 related P2X genes. Conservation is scored on a log scale where maroon is more conserved and blue is less conserved. D, ATP in the ligand-binding pocket of P2X2. […]
GCaMP assays were performed as follows. […] Cells were loaded onto a black, clear bottom microplate and imaged on a FlexStation3 plate reader. […] Fluorescence was measured with an excitation at 485 nm, and emission 525 nm. […] For strains with mScarlet, fluorescence was read with excitation 570 nm/emission 610 nm. […]

T2 sequence (Q9UBL9 whole entry Y299H, the tested form may be a part): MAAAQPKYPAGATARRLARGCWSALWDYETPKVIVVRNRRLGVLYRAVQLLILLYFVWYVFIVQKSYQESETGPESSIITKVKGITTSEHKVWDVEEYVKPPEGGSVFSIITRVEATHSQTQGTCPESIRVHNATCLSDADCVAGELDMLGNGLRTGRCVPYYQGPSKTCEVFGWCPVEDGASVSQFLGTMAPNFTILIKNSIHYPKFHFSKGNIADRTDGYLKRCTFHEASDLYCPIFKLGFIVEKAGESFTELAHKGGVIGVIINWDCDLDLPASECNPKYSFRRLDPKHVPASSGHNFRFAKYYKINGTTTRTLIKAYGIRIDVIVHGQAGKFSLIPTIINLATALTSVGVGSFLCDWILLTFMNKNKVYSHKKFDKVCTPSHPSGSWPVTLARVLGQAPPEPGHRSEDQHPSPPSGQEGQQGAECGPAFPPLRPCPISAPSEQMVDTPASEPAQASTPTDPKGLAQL

activity compared to the wild-type ([1]; AMP-PNP dose-response, high ligand concentrations) [fold]	SMILES	Bottom, best fit value [1]	Hillslope, best fit value [1]	Top, best fit value [1]	EC50 [1] [µM]	signal, % of WT signaling [2] [%]	signal relative to WT [3] [%]
55.87	Nc1ncnc2c1ncn2[C@@H]1O[C@H](COP(=O)(O)OP(=O)(O)NP(=O)(O)O)[C@@H](O)[C@H]1O [AMP-PNP]	-0.1131	1.702	50.72	621		
	Nc1ncnc2c1ncn2[C@@H]1O[C@H](COP(=O)(O)OP(=O)(O)OP(=O)(O)O)[C@@H](O)[C@H]1O [ATP]	0.89	2.41	67.64	16.6	125 ± 47	11 ± 5
